Measurements published in article PMC6979384, “Characterization of the plant homeodomain (PHD) reader family for their histone tail interactions” (Epigenetics & Chromatin, 2020).

What was measured:
Test in all cases: Histone peptide microarray
Format in all cases: binding, human
[1] = tested on: RAG2; conditions: GST-tagged RAG2; for Array Heatmap signal, RAG2: histone peptide array, arrays performed twice, n of 4
Procedure, shortened: (§1)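 A peptide microarray holding 293 synthetic histone peptides with individual or combinatorial modifications was probed with each GST-PHD protein at 0.5 μM. Values represent mean intensity (±SD) from four replicates.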

[2] = tested on: ING5; conditions: GST-tagged ING5; for Array Heatmap signal, ING5: histone peptide array, arrays performed twice, n of 4
Procedure, shortened: as §1

[3] = tested on: PHF8; conditions: GST-tagged PHF8; for Array Heatmap signal, PHF8: histone peptide array, arrays performed twice, n of 4
Procedure, shortened: as §1

[4] = tested on: CHD5 (PCC); conditions: GST-tagged CHD5 (PCC = PHD + Dual Chromodomain); for Array Heatmap signal, CHD5 (PCC): histone peptide array, arrays performed twice, n of 4
Procedure, shortened: as §1

[5] = tested on: PHF23; conditions: GST-tagged PHF23; for Array Heatmap signal, PHF23: histone peptide array, arrays performed twice, n of 4
Procedure, shortened: as §1

[6] = tested on: MLL5; conditions: GST-tagged MLL5; for Array Heatmap signal, MLL5: histone peptide array, arrays performed twice, n of 4
Procedure, shortened: as §1

[7] = tested on: KDM5B (3); conditions: GST-tagged KDM5B (3); for Array Heatmap signal, KDM5B (3): histone peptide array, arrays performed twice, n of 4
Procedure, shortened: as §1

[8] = tested on: PHF2; conditions: GST-tagged PHF2; for Array Heatmap signal, PHF2: histone peptide array, arrays performed twice, n of 4
Procedure, shortened: as §1

[9] = tested on: PHRF1 (RP); conditions: GST-tagged PHRF1 (RP); for Array Heatmap signal, PHRF1 (RP): histone peptide array, arrays performed twice, n of 4
Procedure, shortened: as §1

[10] = tested on: KDM7A; conditions: GST-tagged KDM7A; for Array Heatmap signal, KDM7A: histone peptide array, arrays performed twice, n of 4
Procedure, shortened: as §1

[11] = tested on: MORC3 (CW); conditions: GST-tagged MORC3 (CW = CW-type Zn-finger); for Array Heatmap signal, MORC3 (CW): histone peptide array, arrays performed twice, n of 4
Procedure, shortened: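 Binding read as mean relative signal from 4 replicates; microarray held 293 synthetic histone peptides with single or combinatorial PTMs. Each GST-tagged PHD reader was applied at 0.5 μM using the optimized Petell protocol.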

[12] = tested on: PHF13; conditions: GST-tagged PHF13; for Array Heatmap signal, PHF13: histone peptide array, arrays performed twice, n of 4
Procedure, shortened: as §1

[13] = tested on: DPF2 (PPC2W2); conditions: GST-tagged DPF2 (PPC2W2 = Dual PHD + C2W2-type Zn-finger); for Array Heatmap signal, DPF2 (PPC2W2): histone peptide array, arrays performed twice, n of 4
Procedure, shortened: as §1

[14] = tested on: ING3; conditions: GST-tagged ING3; for Array Heatmap signal, ING3: histone peptide array, arrays performed twice, n of 4
Procedure, shortened: as §1

[15] = tested on: KDM4C (TTP); conditions: GST-tagged KDM4C (TTP = Tandem Tudor domain + PHD); for Array Heatmap signal, KDM4C (TTP): histone peptide array, arrays performed twice, n of 4
Procedure, shortened: as §1

[16] = tested on: KDM5B (1); conditions: GST-tagged KDM5B (1); for Array Heatmap signal, KDM5B (1): histone peptide array, arrays performed twice, n of 4
Procedure, shortened: as §1

[17] = tested on: ING2; conditions: GST-tagged ING2; for Array Heatmap signal, ING2: histone peptide array, arrays performed twice, n of 4
Procedure, shortened: as §1

[18] = tested on: PHF21A; conditions: GST-tagged PHF21A; for Array Heatmap signal, PHF21A: histone peptide array, arrays performed twice, n of 4
Procedure, shortened: as §1

[19] = tested on: TRIM66 (PB); conditions: GST-tagged TRIM66 (PB = PHD + Bromodomain); for Array Heatmap signal, TRIM66 (PB): histone peptide array, arrays performed twice, n of 4
Procedure, shortened: as §1

[20] = tested on: CHD4 (PPCC); conditions: GST-tagged CHD4 (PPCC = Dual PHD + Dual Chromodomain); for Array Heatmap signal, CHD4 (PPCC): histone peptide array, arrays performed twice, n of 4
Procedure, shortened: as §1

[21] = tested on: BAZ2B; conditions: GST-tagged BAZ2B; for Array Heatmap signal, BAZ2B: histone peptide array, arrays performed twice, n of 4
Procedure, shortened: as §1

[22] = tested on: BPTF (PB); conditions: GST-tagged BPTF (PB = PHD + Bromodomain); for Array Heatmap signal, BPTF (PB): histone peptide array, arrays performed twice, n of 4
Procedure, shortened: as §1

[23] = tested on: AIRE (PP); conditions: GST-tagged AIRE (PP); for Array Heatmap signal, AIRE (PP): histone peptide array, arrays performed twice, n of 4
Procedure, shortened: as §1

[24] = tested on: KDM5A (3); conditions: GST-tagged KDM5A (3); for Array Heatmap signal, KDM5A (3): histone peptide array, arrays performed twice, n of 4
Procedure, shortened: as §1

[25] = tested on: SP140L; conditions: GST-tagged SP140L; for Array Heatmap signal, SP140L: histone peptide array, arrays performed twice, n of 4
Procedure, shortened: as §1

[26] = tested on: TAF3; conditions: GST-tagged TAF3; for Array Heatmap signal, TAF3: histone peptide array, arrays performed twice, n of 4
Procedure, shortened: as §1

[27] = tested on: CHD5 (PPCC); conditions: GST-tagged CHD5 (PPCC = Dual PHD + Dual Chromodomain); for Array Heatmap signal, CHD5 (PPCC): histone peptide array, arrays performed twice, n of 4
Procedure, shortened: as §1

[28] = tested on: DIDO1; conditions: GST-tagged DIDO1; for Array Heatmap signal, DIDO1: histone peptide array, arrays performed twice, n of 4
Procedure, shortened: as §1

[29] = tested on: KDM5A (1); conditions: GST-tagged KDM5A (1); for Array Heatmap signal, KDM5A (1): histone peptide array, arrays performed twice, n of 4
Procedure, shortened: as §1

[30] = tested on: ING1; conditions: GST-tagged ING1; for Array Heatmap signal, ING1: histone peptide array, arrays performed twice, n of 4
Procedure, shortened: as §1

[31] = tested on: ING4; conditions: GST-tagged ING4; for Array Heatmap signal, ING4: histone peptide array, arrays performed twice, n of 4
Procedure, shortened: as §1

[32] = sheet Array Heatmap, each array performed twice, total n = 4

Substance: H3K4ac + K9ac + K14ac + K18ac: H3 1-20
- Array Heatmap signal (histone peptide microarray) [1, 32]: 0.2412
- Array Heatmap signal (histone peptide microarray) [2, 32]: 0.3295
- Array Heatmap signal (histone peptide microarray) [3, 32]: 0.3207
- Array Heatmap signal (histone peptide microarray) [4, 32]: 0.7123
- Array Heatmap signal (histone peptide microarray) [5, 32]: 0.5552
- Array Heatmap signal (histone peptide microarray) [6, 32]: 0.5536
- Array Heatmap signal (histone peptide microarray) [7, 32]: 0.4694
- Array Heatmap signal (histone peptide microarray) [8, 32]: 0.6121
- Array Heatmap signal (histone peptide microarray) [9, 32]: 0.4629
- Array Heatmap signal (histone peptide microarray) [10, 32]: 0.3021
- Array Heatmap signal (histone peptide microarray) [11, 32]: 0.3581
- Array Heatmap signal (histone peptide microarray) [12, 32]: 0.5706
- Array Heatmap signal (histone peptide microarray) [13, 32]: 0.6596
- Array Heatmap signal (histone peptide microarray) [14, 32]: 0.4699
- Array Heatmap signal (histone peptide microarray) [15, 32]: 0.4292
- Array Heatmap signal (histone peptide microarray) [16, 32]: 0.573
- Array Heatmap signal (histone peptide microarray) [17, 32]: 0.6105
- Array Heatmap signal (histone peptide microarray) [18, 32]: 0.4272
- Array Heatmap signal (histone peptide microarray) [19, 32]: 0.6561
- Array Heatmap signal (histone peptide microarray) [20, 32]: 0.5829
- Array Heatmap signal (histone peptide microarray) [21, 32]: 0.563
- Array Heatmap signal (histone peptide microarray) [22, 32]: 0.3593
- Array Heatmap signal (histone peptide microarray) [23, 32]: 0.3782
- Array Heatmap signal (histone peptide microarray) [24, 32]: 0.4281
- Array Heatmap signal (histone peptide microarray) [25, 32]: 0.3096
- Array Heatmap signal (histone peptide microarray) [26, 32]: 0.2581
- Array Heatmap signal (histone peptide microarray) [27, 32]: 0.5084
- Array Heatmap signal (histone peptide microarray) [28, 32]: 0.7084
- Array Heatmap signal (histone peptide microarray) [29, 32]: 0.4231
- Array Heatmap signal (histone peptide microarray) [30, 32]: 0.5598
- Array Heatmap signal (histone peptide microarray) [31, 32]: 0.4318

Substance: H4R3me2a: H4 1-23 [Peptide H4R3me2a]
- Array Heatmap signal, RAG2 [1]: 0.3803
- Array Heatmap signal, ING5 [2]: 0.4061
- Array Heatmap signal, PHF8 [3]: 0.391
- Array Heatmap signal, CHD5 (PCC) [4]: 0.8242
- Array Heatmap signal, PHF23 [5]: 0.5402
- Array Heatmap signal, MLL5 [6]: 0.6462
- Array Heatmap signal, KDM5B (3) [7]: 0.6206
- Array Heatmap signal, PHF2 [8]: 0.4976
- Array Heatmap signal, PHRF1 (RP) [9]: 0.4379
- Array Heatmap signal, KDM7A [10]: 0.5968
- Array Heatmap signal, MORC3 (CW) [11]: 0.3932
- Array Heatmap signal, PHF13 [12]: 0.6445
- Array Heatmap signal, DPF2 (PPC2W2) [13]: 0.6681
- Array Heatmap signal, ING3 [14]: 0.4883
- Array Heatmap signal, KDM4C (TTP) [15]: 0.5587
- Array Heatmap signal, KDM5B (1) [16]: 0.6754
- Array Heatmap signal, ING2 [17]: 0.6586
- Array Heatmap signal, PHF21A [18]: 0.4696
- Array Heatmap signal, TRIM66 (PB) [19]: 0.665
- Array Heatmap signal, CHD4 (PPCC) [20]: 0.544
- Array Heatmap signal, BAZ2B [21]: 0.5399
- Array Heatmap signal, BPTF (PB) [22]: 0.3886
- Array Heatmap signal, AIRE (PP) [23]: 0.5327
- Array Heatmap signal, KDM5A (3) [24]: 0.5304
- Array Heatmap signal, SP140L [25]: 0.3676
- Array Heatmap signal, TAF3 [26]: 0.3922
- Array Heatmap signal, CHD5 (PPCC) [27]: 0.5601
- Array Heatmap signal, DIDO1 [28]: 0.7103
- Array Heatmap signal, KDM5A (1) [29]: 0.4898
- Array Heatmap signal, ING1 [30]: 0.5321
- Array Heatmap signal, ING4 [31]: 0.4842

Substance: H4K5ac: H4 1-23 [Peptide H4K5ac]
- Array Heatmap signal, RAG2 [1]: 0.2578
- Array Heatmap signal, ING5 [2]: 0.3447
- Array Heatmap signal, PHF8 [3]: 0.3344
- Array Heatmap signal, CHD5 (PCC) [4]: 0.7301
- Array Heatmap signal, PHF23 [5]: 0.5421
- Array Heatmap signal, MLL5 [6]: 0.5676
- Array Heatmap signal, KDM5B (3) [7]: 0.4665
- Array Heatmap signal, PHF2 [8]: 0.5353
- Array Heatmap signal, PHRF1 (RP) [9]: 0.4272
- Array Heatmap signal, KDM7A [10]: 0.3174
- Array Heatmap signal, MORC3 (CW) [11]: 0.3392
- Array Heatmap signal, PHF13 [12]: 0.6012
- Array Heatmap signal, DPF2 (PPC2W2) [13]: 0.6533
- Array Heatmap signal, ING3 [14]: 0.4744
- Array Heatmap signal, KDM4C (TTP) [15]: 0.4448
- Array Heatmap signal, KDM5B (1) [16]: 0.6329
- Array Heatmap signal, ING2 [17]: 0.5879
- Array Heatmap signal, PHF21A [18]: 0.436
- Array Heatmap signal, TRIM66 (PB) [19]: 0.6888
- Array Heatmap signal, CHD4 (PPCC) [20]: 0.5634
- Array Heatmap signal, BAZ2B [21]: 0.4414
- Array Heatmap signal, BPTF (PB) [22]: 0.3451
- Array Heatmap signal, AIRE (PP) [23]: 0.3943
- Array Heatmap signal, KDM5A (3) [24]: 0.423
- Array Heatmap signal, SP140L [25]: 0.3459
- Array Heatmap signal, TAF3 [26]: 0.3079
- Array Heatmap signal, CHD5 (PPCC) [27]: 0.5269
- Array Heatmap signal, DIDO1 [28]: 0.6701
- Array Heatmap signal, KDM5A (1) [29]: 0.4372
- Array Heatmap signal, ING1 [30]: 0.5387
- Array Heatmap signal, ING4 [31]: 0.4388
